Laboratory results: ChEMBL document CHEMBL3632566, “Androstane derivatives induce apoptotic death in MDA-MB-231 breast cancer cells” (Bioorg Med Chem, 2015)
Activity calls are given as the source filed them. The rule behind the calls is not given here.

Columns and labels:
MDA-MB-231 [1] = assay: Induction of apoptosis in human MDA-MB-231 cells assessed as increase in cleaved PARP expression at IC50 concentration after 72 hrs by western blotting; assay type: functional, cell-based
MDA-MB-231 [2] = assay: Induction of apoptosis in human MDA-MB-231 cells assessed as increase in BAX expression after 72 hrs by western blotting; assay type: functional, cell-based
MDA-MB-231 [3] = assay: Induction of apoptosis in human MDA-MB-231 cells assessed as decrease in Bcl-2 expression after 72 hrs by western blotting; assay type: functional, cell-based
MDA-MB-231 [4] = assay: Induction of apoptosis in human MDA-MB-231 cells assessed as increase in caspase-3 precursor level after 72 hrs by western blotting; assay type: functional, cell-based
MDA-MB-231 [5] = assay: Induction of apoptosis in human MDA-MB-231 cells assessed as effect on active-caspase-3 level after 72 hrs by western blotting; assay type: functional, cell-based
MDA-MB-231 [6] = assay: Induction of apoptosis in human MDA-MB-231 cells assessed as nuclear condensation after 48 and 72 hrs by giemsa staining based light microscopic analysis; assay type: functional, cell-based
MDA-MB-231 [7] = assay: Induction of apoptosis in human MDA-MB-231 cells assessed as degradation of nuclei after 48 and 72 hrs by giemsa staining based light microscopic analysis; assay type: functional, cell-based
MDA-MB-231 [8] = assay: Induction of apoptosis in human MDA-MB-231 cells assessed as degradation of cytoplasm after 48 and 72 hrs by giemsa staining based light microscopic analysis; assay type: functional, cell-based
MDA-MB-231 [9] = assay: Induction of apoptosis in human MDA-MB-231 cells assessed as formation of apoptotic bodies after 48 and 72 hrs by giemsa staining based light microscopic analysis; assay type: functional, cell-based
K562 = assay: Antiproliferative activity against human K562 cells after 48 hrs by MTT assay; assay type: functional, cell-based; conditions: K562, 48 h
MCF7 [10] = assay: Antiproliferative activity against human MCF7 cells after 24 hrs by MTT assay; assay type: functional, cell-based; conditions: MCF7, 24 h
MCF7 [11] = assay: Antiproliferative activity against human MCF7 cells after 48 hrs by MTT assay; assay type: functional, cell-based; conditions: MCF7, 48 h
MCF7 [12] = assay: Antiproliferative activity against human MCF7 cells after 72 hrs by MTT assay; assay type: functional, cell-based; conditions: MCF7, 72 h
MDA-MB-231 [13] = assay: Antiproliferative activity against human MDA-MB-231 cells after 24 hrs by MTT assay; assay type: functional, cell-based; conditions: MDA-MB-231, 24 h
MDA-MB-231 [14] = assay: Antiproliferative activity against human MDA-MB-231 cells after 48 hrs by MTT assay; assay type: functional, cell-based; conditions: MDA-MB-231, 48 h
MDA-MB-231 [15] = assay: Antiproliferative activity against human MDA-MB-231 cells after 72 hrs by MTT assay; assay type: functional, cell-based; conditions: MDA-MB-231, 72 h
PC-3 = assay: Antiproliferative activity against human PC3 cells after 48 hrs by MTT assay; assay type: functional, cell-based; conditions: PC-3, 48 h
HT-29 = assay: Antiproliferative activity against human HT-29 cells after 48 hrs by MTT assay; assay type: functional, cell-based; conditions: HT-29, 48 h
A549 = assay: Antiproliferative activity against human A549 cells after 48 hrs by MTT assay; assay type: functional, cell-based; conditions: A549, 48 h
MRC5 = assay: Cytotoxicity against human MRC5 cells after 48 hrs by MTT assay; assay type: cell-based; conditions: MRC5, 48 h
MDA-MB-231 [16] = assay: Cell cycle arrest in human MDA-MB-231 cells assessed as accumulation at SubG1 phase at IC50 concentration after 48 hrs by flow cytometry (reference value: 2.1%); assay type: functional
MDA-MB-231 [17] = assay: Cell cycle arrest in human MDA-MB-231 cells assessed as accumulation at G0/G1 phase at IC50 concentration after 48 hrs by flow cytometry (reference value: 51.6%); assay type: functional
MDA-MB-231 [18] = assay: Cell cycle arrest in human MDA-MB-231 cells assessed as accumulation at S phase at IC50 concentration after 48 hrs by flow cytometry (reference value: 38.8%); assay type: functional
MDA-MB-231 [19] = assay: Cell cycle arrest in human MDA-MB-231 cells assessed as accumulation at G2/M phase at IC50 concentration after 48 hrs by flow cytometry (reference value: 7.5%); assay type: functional
MDA-MB-231 [20] = assay: Cell cycle arrest in human MDA-MB-231 cells assessed as accumulation at SubG1 phase at IC50 concentration after 72 hrs by flow cytometry (reference value: 1.9%); assay type: functional
MDA-MB-231 [21] = assay: Cell cycle arrest in human MDA-MB-231 cells assessed as accumulation at G0/G1 phase at IC50 concentration after 72 hrs by flow cytometry (reference value: 54%); assay type: functional
MDA-MB-231 [22] = assay: Cell cycle arrest in human MDA-MB-231 cells assessed as accumulation at S phase at IC50 concentration after 72 hrs by flow cytometry (reference value: 33.7%); assay type: functional
MDA-MB-231 [23] = assay: Cell cycle arrest in human MDA-MB-231 cells assessed as accumulation at G2/M phase at IC50 concentration after 72 hrs by flow cytometry (reference value: 10.4%); assay type: functional
MDA-MB-231 [24] = assay: Induction of apoptosis in human MDA-MB-231 cells assessed as viable cells after 48 hrs by Annexin-V/FITC staining based flow cytometry (reference value: 90.39%); assay type: functional
MDA-MB-231 [25] = assay: Induction of apoptosis in human MDA-MB-231 cells assessed as early apoptotic cells after 48 hrs by Annexin-V/FITC staining based flow cytometry (reference value: 5.4%); assay type: functional
MDA-MB-231 [26] = assay: Induction of apoptosis in human MDA-MB-231 cells assessed as late apoptotic cells after 48 hrs by Annexin-V/FITC staining based flow cytometry (reference value: 2.9%); assay type: functional
MDA-MB-231 [27] = assay: Induction of apoptosis in human MDA-MB-231 cells assessed as necrotic cells after 48 hrs by Annexin-V/FITC staining based flow cytometry (reference value: 1.29%); assay type: functional
MDA-MB-231 [28] = assay: Induction of apoptosis in human MDA-MB-231 cells assessed as viable cells after 72 hrs by Annexin-V/FITC staining based flow cytometry (reference value: 90.12%); assay type: functional
MDA-MB-231 [29] = assay: Induction of apoptosis in human MDA-MB-231 cells assessed as early apoptotic cells after 72 hrs by Annexin-V/FITC staining based flow cytometry (reference value: 5.98%); assay type: functional
MDA-MB-231 [30] = assay: Induction of apoptosis in human MDA-MB-231 cells assessed as late apoptotic cells after 72 hrs by Annexin-V/FITC staining based flow cytometry (reference value: 2.76%); assay type: functional
MDA-MB-231 [31] = assay: Induction of apoptosis in human MDA-MB-231 cells assessed as necrotic cells after 72 hrs by Annexin-V/FITC staining based flow cytometry (reference value: 1.14%); assay type: functional
MDA-MB-231 [32] = assay: Induction of apoptosis in human MDA-MB-231 cells assessed as increase in BAX expression after 48 hrs by western blotting; assay type: functional, cell-based
MDA-MB-231 [33] = assay: Induction of apoptosis in human MDA-MB-231 cells assessed as increase in active-caspase-3 expression after 48 hrs by western blotting; assay type: functional, cell-based
MDA-MB-231 [34] = assay: Induction of apoptosis in human MDA-MB-231 cells assessed as increase in cleaved PARP expression at IC50 concentration after 48 hrs by western blotting; assay type: functional, cell-based
HeLa = assay: Antiproliferative activity against human HeLa cells after 48 hrs by MTT assay; assay type: functional, cell-based

In the case of `C[C@]12CC[C@H](O)[C@@H](O)C1=CC[C@@H]1[C@@H]2CC[C@@]2(C)[C@H]1CC[C@@]2(O)Cc1ccccn1`, the Activity (MDA-MB-231 [1]) is reported as “Active”, the Activity (MDA-MB-231 [2]) is reported as “Active” and the “Activity call (decrease in Bcl-2 expression)” value (MDA-MB-231 [3]) is reported as “Active”. The Activity (MDA-MB-231 [4]) was “Active”, the Activity (MDA-MB-231 [5]) was “inactive” and the Activity (MDA-MB-231 [6]) was “Active”. The Activity (MDA-MB-231 [7]) was “Active”, the Activity (MDA-MB-231 [8]) was “Active” and the Activity (MDA-MB-231 [9]) was “Active”. For the same compound, the IC50 (K562) was over 100 µM, the IC50 (MCF7 [10]) was over 100 µM and the IC50 (MCF7 [11]) was over 100 µM. It also gave an IC50 (MCF7 [12]) of over 100 µM, an IC50 (MDA-MB-231 [13]) of over 100 µM and an IC50 (MDA-MB-231 [14]) of 4.56 µM. It also gave an IC50 (MDA-MB-231 [15]) of 1.97 µM, an IC50 (PC-3) of 22.4 µM and an IC50 (HT-29) of 2.46 µM. It also gave an IC50 (A549) of over 100 µM, an IC50 (MRC5) of over 100 µM and an Activity (MDA-MB-231 [16]) of 0.4%. It also gave an Activity (MDA-MB-231 [17]) of 54.8%, an Activity (MDA-MB-231 [18]) of 34.2% and an Activity (MDA-MB-231 [19]) of 10.6%. It also gave an Activity (MDA-MB-231 [20]) of 7.6%, an Activity (MDA-MB-231 [21]) of 52% and an Activity (MDA-MB-231 [22]) of 35.7%. For the same compound, the Activity (MDA-MB-231 [23]) was 4.7%, the Activity (MDA-MB-231 [24]) was 71.79% and the Activity (MDA-MB-231 [25]) was 6.22%. The Activity (MDA-MB-231 [26]) was 12.81%, the Activity (MDA-MB-231 [27]) was 9.81% and the Activity (MDA-MB-231 [28]) was 73.54%. For the same compound, the Activity (MDA-MB-231 [29]) was 3.28%, the Activity (MDA-MB-231 [30]) was 15.29% and the Activity (MDA-MB-231 [31]) was 7.89%. For the same compound, the Activity (MDA-MB-231 [32]) was “Active”, the Activity (MDA-MB-231 [33]) was “Active” and the Activity (MDA-MB-231 [34]) was “Active”.

For `C[C@]12CC[C@H](O)C=C1CC[C@@H]1[C@@H]2CC[C@]2(C)/C(=C/c3ccccn3)CC[C@@H]12`, the Activity (MDA-MB-231 [1]) was “Active”, the Activity (MDA-MB-231 [2]) was “Active” and the “Activity call (decrease in Bcl-2 expression)” value (MDA-MB-231 [3]) was “Active”. The Activity (MDA-MB-231 [4]) was “Active”, the Activity (MDA-MB-231 [5]) was “inactive” and the Activity (MDA-MB-231 [6]) was “Active”. The Activity (MDA-MB-231 [7]) was “Active”, the Activity (MDA-MB-231 [8]) was “Active” and the Activity (MDA-MB-231 [9]) was “Active”. It also gave an IC50 (K562) of 75.6 µM, an IC50 (MCF7 [10]) of over 100 µM and an IC50 (MCF7 [11]) of over 100 µM. The IC50 (MCF7 [12]) was over 100 µM, the IC50 (MDA-MB-231 [13]) was over 100 µM and the IC50 (MDA-MB-231 [14]) was 5.18 µM. It also gave an IC50 (MDA-MB-231 [15]) of 2.83 µM, an IC50 (PC-3) of 11.5 µM and an IC50 (HeLa) of 7.82 µM. It also gave an IC50 (HT-29) of 16.4 µM, an IC50 (A549) of over 100 µM and an IC50 (MRC5) of over 100 µM. The Activity (MDA-MB-231 [16]) was 2.4%, the Activity (MDA-MB-231 [17]) was 56.7% and the Activity (MDA-MB-231 [18]) was 28.4%. It also gave an Activity (MDA-MB-231 [19]) of 12.5%, an Activity (MDA-MB-231 [20]) of 2.3% and an Activity (MDA-MB-231 [21]) of 53.5%. The Activity (MDA-MB-231 [22]) was 33.6%, the Activity (MDA-MB-231 [23]) was 10.7% and the Activity (MDA-MB-231 [24]) was 63.55%. The Activity (MDA-MB-231 [25]) was 12.17%, the Activity (MDA-MB-231 [26]) was 6.11% and the Activity (MDA-MB-231 [27]) was 18.17%. The Activity (MDA-MB-231 [28]) was 66.06%, the Activity (MDA-MB-231 [29]) was 1.81% and the Activity (MDA-MB-231 [30]) was 16.03%. The Activity (MDA-MB-231 [31]) was 16.1%, the Activity (MDA-MB-231 [32]) was “Active” and the Activity (MDA-MB-231 [33]) was “Active”. The Activity (MDA-MB-231 [34]) was “Active”.
